Numbers after ± are expanded uncertainties.
Conditions: 369.8 K; Liquid; Ebulliometric method (Recirculating still)

vapor or sublimation pressure: 100 ± 2 kPa
SMILES: CCCO [propan-1-ol]

— the NIST ThermoML archive (doi:10.1016/j.jct.2017.06.005)
